Common to all, as to format: in vivo
The subject of test [1] is Cabbage Looper [Trichoplusia ni (Hubner)]. In words: Cabbage looper test (CL). To be noted: second-instar larvae, 3-5 days, percent in solution.
Test [2] concerns Housefly [Musca domestica]. The test can be described thus: Housefly insecticidal test (HF). To be noted: per 25 female houseflies, 48 hours.
The subject of test [3] is Tobacco Budworm [Heliothis virescens (Fabricius)] eggs. The test can be described thus: Tobacco budworm egg test (TBW-E). Particulars: percent in solution.
In test [4] the test system is Maize weevil [Sitophilus Zeamais (Motschulsky)]. The test can be described thus: Maize weevil test (MW). Particulars: adult weevils, treated corn seeds, 48 hours, percent in solution. The method, then: The compounds in Tables 1 and 2 above were tested for insecticidal activity using the following testing procedures. LC50 values, based on the results of these tests and calculated according to dosage-mortality curves, are expressed in Table 3.
Maize weevil [Sitophilus Zeamais (Motschulsky)]
Test compounds were diluted in a 50:50 acetone:water solution. Four corn seeds [Zea mays (L.)] which had been immersed in test solutions for 2-3 seconds and allowed to dry were placed in containers together with 10 adult weevils. The containers were covered and kept at a temperature of about 25° C. Mortality was recorded after 48 hours. Test concentrations ranged from 0.01% down to that at which 50% mortalilty occurred. The LC50 values are expressed below in Table 3 under the heading "MW" in terms of percent of the test compound in solution.

Structures are written as SMILES. Bounds are passed on as bounds.

For `CC(C)C(=Nc1ccc(C(F)(F)F)cc1Cl)OCc1ccc(F)c(Oc2ccccc2)c1` [Compound 428], in test [1], the “LC50 CL” value is reported as 0.0017%. Besides, in test [2], the “LC50 HF” value was more than 100 µg. For the same compound, the “LC50 TBW E” value in test [3] is more than 0.1%. For the same compound, the “LC50 MW” value in test [4] is more than 0.01%.
For `CC(C)c1ccc(N=C(OCc2cccc(Oc3ccccc3)c2)C2CCC2)cc1` [Compound 339], in that order: 0.017%, more than 100 µg, more than 0.1% and more than 0.01%.
For `CCOc1ccc(N=C(OCc2cccc(Oc3ccc(F)cc3)c2)C(C)C)cc1Br` [Compound 446], in that order: 0.0008%, more than 100 µg, less than 0.1% and more than 0.01%.
For `COc1ccc(N=C(OCc2ccc(F)c(Oc3ccc(Cl)cc3)c2)C(C)C)cc1` [Compound 412], in that order: more than 0.1%, less than 100 µg, more than 0.1% and more than 0.01%.
As to `CC(Br)C(=Nc1ccc2c(c1)OCO2)OCc1cccc(Oc2ccccc2)c1` (stereo not drawn) [Compound 306], the “LC50 CL” value in test [1] came to 0.005%. The “LC50 HF” value in test [2] was more than 100 µg. In test [3], the “LC50 TBW E” value worked out at 0.1%. The “LC50 MW” value in test [4] is more than 0.01%.
For `CC(C)C(=Nc1ccc(OCC(F)(F)F)c(Cl)c1)OCc1ccc(F)c(Oc2ccccc2)c1` [Compound 424], in that order: 0.00038%, more than 100 µg, 0.035% and more than 0.01%.
Take `CSc1cccc(N=C(OCc2cccc(Oc3ccccc3)c2)C(C)C)c1` [Compound 166]: the “LC50 CL” value in test [1] was found to be 0.009%. Also, the “LC50 HF” value in test [2] worked out at 22 µg. In addition, in test [3], the “LC50 TBW E” value was more than 0.1%.
For `CC(C)C(=Nc1ccc2c(c1)OC(C)(C)O2)OCc1cccc(Oc2ccccc2)c1` [Compound 182], in that order: 0.0006%, 28 µg and 0.04%.
On the same counts, the results for `CC(C)C(=Nc1ccc(Cl)cc1Cl)OCc1cccc(Oc2ccccc2)c1` [Compound 311] are 0.0017%, 22 µg and 0.1%.
Turning to `Cc1ccc(C)c(N=C(OCc2cccc(Oc3ccccc3)c2)C(C)C)c1` [Compound 250], in test [1], the “LC50 CL” value amounted to 0.004%. Further, the “LC50 HF” value in test [2] was 38 µg. For the same compound, the “LC50 TBW E” value in test [3] came out at 0.03%.
For `COc1ccc(Oc2cccc(COC(=Nc3ccc(Cl)c(Cl)c3)C(C)C)c2)cc1` [Compound 223], in that order: 0.008%, 43 µg and more than 0.1%.
For `CC(C)C(=Nc1ccc(Cl)c(Cl)c1)OCc1cccc(Oc2cccc(F)c2)c1` [Compound 40], in that order: 0.0025%, 36 µg and 0.08%.
Turning to `CC(C)C(=Nc1ccc(F)c(Cl)c1)OCc1ccc(OCc2ccc(F)cc2)cc1` [Compound 487], in test [1], the “LC50 CL” value is 0.023%. In addition, in test [2], the “LC50 HF” value is more than 100 µg. Besides, the “LC50 TBW E” value in test [3] was more than 0.1%.
For `CCC(C)C(=Nc1ccc(C(C)C)cc1)OCc1cccc(Oc2ccccc2)c1` (stereo not drawn) [Compound 317], in that order: 0.0045%, more than 100 µg and 0.03%.
On the same counts, the results for `Cc1cc(Cl)ccc1N=C(OCc1cccc(Oc2ccccc2)c1)C(C)(C)C` [Compound 109] are 0.002%, more than 100 µg and more than 0.1%.
For `CC(C)C(=Nc1c(Cl)cc(Cl)cc1Cl)OCc1cccc(Oc2ccccc2)c1` [Compound 19], in that order: less than 0.1%, more than 100 µg and more than 0.1%.
For `CCCCC(=Nc1ccc(F)c(Cl)c1)OCc1cccc(Oc2ccccc2)c1` [Compound 121], the “LC50 CL” value in test [1] is reported as 0.1%. Besides, the “LC50 HF” value in test [2] was more than 100 µg. Further, the “LC50 TBW E” value in test [3] is recorded as more than 0.1%.
For `CCC(=Nc1ccc(F)cc1F)OCc1cccc(Oc2ccccc2)c1` [Compound 59], in that order: 0.02%, 25 µg and more than 0.1%.
On to `COc1ccc(N=C(OCc2cccc(Oc3ccccc3)c2)C(C)C)cc1OC` [Compound 169], for which, in test [1], the “LC50 CL” value came out at 0.009%. The “LC50 HF” value in test [2] was 10 µg. Also, the “LC50 TBW E” value in test [3] is reported as more than 0.1%.
On the same counts, the results for `CC(C)C(=Nc1cccc(C(F)(F)F)c1)OCc1cccc(OCc2ccc(F)cc2)c1` [Compound 489] are less than 0.1%, more than 100 µg and more than 0.1%.
For `CC(C)C(=Nc1ccc(C#N)cc1)OCc1cccc(Oc2ccc(F)cc2)c1` [Compound 227], in that order: 0.0015%, 10 µg and 0.1%.
On the same counts, the results for `CCC(C)C(=Nc1ccc2c(c1)OCO2)OCc1cccc(Oc2ccccc2)c1` (stereo not drawn) [Compound 185] are 0.0006%, 13 µg and 0.075%.
As to `COc1ccc(Oc2cccc(COC(=Nc3ccc(F)cc3)C(C)C)c2)cc1` [Compound 220], in test [1], the “LC50 CL” value came out at 0.007%. Moreover, the “LC50 HF” value in test [2] is 85 µg. Also, in test [3], the “LC50 TBW E” value was more than 0.1%.
On the same counts, the results for `CC(C)C(=Nc1ccc(Cl)c(Cl)c1)OCc1cccc(Oc2ccc(F)c(F)c2)c1` [Compound 218] are 0.0003%, 25 µg and 0.025%.
Turning to `CC(C)C(=Nc1ccc(F)c(Cl)c1)OC(C)c1cccc(Oc2ccccc2)n1` (stereo not drawn) [Compound 498], in test [1], the “LC50 CL” value worked out at 0.002%. For the same compound, in test [2], the “LC50 HF” value was determined as 49 µg. For the same compound, the “LC50 TBW E” value in test [3] is listed as more than 0.1%.
Consider `CC(C)C(=Nc1ccc(F)c(Cl)c1)OCc1cccc(Oc2ccc(I)cc2)c1` [Compound 447], for which the “LC50 CL” value in test [1] came out at 0.0009%. Besides, the “LC50 HF” value in test [2] stood at 33 µg. Moreover, the “LC50 TBW E” value in test [3] is given as more than 0.1%.
On the same counts, the results for `CCOC(=O)c1cccc(N=C(OCc2cccc(Oc3ccccc3)c2)C(C)(C)C)c1` [Compound 168] are 0.1%, more than 100 µg and more than 0.1%.
On the same counts, the results for `CC(C)C(=Nc1ccc(C(C)(C)C)cc1)OCc1cccc(Oc2ccccc2)n1` [Compound 496] are 0.006%, more than 100 µg and more than 0.1%.
For `CC(C)C(=Nc1cccc(Br)c1)OCc1cccc(Oc2ccc(F)cc2)c1` [Compound 229], in that order: 0.0005%, 20 µg and more than 0.1%.
As for `COCc1c(F)c(F)c(COC(=Nc2ccc3c(c2)OCO3)C(C)C)c(F)c1F` [Compound 501], the “LC50 CL” value in test [1] stood at 0.00045%. In test [2], the “LC50 HF” value was determined as 20 µg. In test [3], the “LC50 TBW E” value was more than 0.1%.
For `CC(C)C(=Nc1ccc(F)c(F)c1)OCc1coc(Cc2ccccc2)c1` [Compound 485], in that order: more than 0.1%, 24 µg and more than 0.1%.
